Reference: US10604514B2, “6-(5-membered heteroaryl)isoquinolin-3-yl carboxamides and preparation and use thereof” (Samumed, LLC, priority 2017, dated 2020)
Where two headings read alike, the source gives them in different places.

Tests used:
[1] = test system: Wnt activity (Sp5-Luc reporter in SW480 colon carcinoma cells); assay: Wnt activity screening assay (Sp5-Luc reporter gene assay); format: cell-based, human
Summary of the method: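 SW480 cells stably carrying an Sp5 promoter (eight TCF/LEF sites)-firefly luciferase reporter were plated in DMEM with 1% FBS and treated with a 10-point, 1:3 dilution series from 10 μM (0.1% DMSO) for 36 to 48 h at 37° C. Luminescence was normalized to DMSO controls, and EC50 came from four-parameter nonlinear regression.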

GSK3β kinase = GSK3β kinase (Homo sapiens (Human), UniProt P49841); assay: GSK3β kinase assay (Ser/Thr 09 peptide Z-lyte, FRET); format: biochemical; details: method text calls the value IC50;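 further: Coumarin/fluorescein emission ratio converted to percent phosphorylation against unphosphorylated (0%) and phosphorylated (100%) controls, 1 h compound incubation at room temperature, 11-point threefold dilutions from 10 µM, run in duplicate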
Chain of GSK3β kinase (P49841 whole entry): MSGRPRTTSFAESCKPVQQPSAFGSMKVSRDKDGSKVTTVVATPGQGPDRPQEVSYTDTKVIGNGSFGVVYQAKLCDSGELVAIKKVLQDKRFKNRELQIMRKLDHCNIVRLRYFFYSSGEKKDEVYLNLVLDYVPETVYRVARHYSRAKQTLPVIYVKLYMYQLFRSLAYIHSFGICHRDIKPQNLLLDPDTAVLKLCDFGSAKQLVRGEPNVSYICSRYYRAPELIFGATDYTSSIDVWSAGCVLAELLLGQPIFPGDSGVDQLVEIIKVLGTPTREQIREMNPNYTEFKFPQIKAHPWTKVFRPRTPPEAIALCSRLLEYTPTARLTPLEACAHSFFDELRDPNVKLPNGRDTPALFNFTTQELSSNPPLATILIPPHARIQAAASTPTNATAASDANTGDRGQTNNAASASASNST

[2] = test system: Tau phosphorylation at Ser396 (pSer396), SH-SY5Y cells; assay: Tau phosphorylation at Ser396 (pSer396) in SH-SY5Y cells, ELISA/western blot; format: cell-based, human; details: Homo sapiens;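 further: cell lysates probed for reduced Tau pSer396 via ELISA (colorimetric) or western blot (chemiluminescence), both with one shared pSer396 antibody, EC50 for lowering phosphorylation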
[3] = test system: SW480 colon carcinoma cells; assay: Cell viability assay (CellTiter-Glo) in SW480 cells; format: cell-based, human;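 further: SW480 cells stably carrying an Sp5-luciferase TCF/LEF reporter, luminescent ATP signal as viability measure, DMSO-treated cells as control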
[4] = test system: LL29 cells (primary human fibroblasts derived from IPF patients), α-smooth muscle actin; assay: Inhibition of fibrotic process: αSMA in TGF-β1-treated primary human fibroblasts from IPF patients (LL29 cells); format: cell-based; details: Homo sapiens, Fibroblast; for EC50: 96 h, % αSMA-positive LL29 cells, TGF-β1 20 ng/mL, 4 days; for inhibition at 10 µM: read-out: percent inhibition at 10 μM
Summary of the method: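 IPF-patient lung fibroblasts (LL29) were stimulated with TGF-β1 (20 ng/mL) in 1% FBS medium with compound (11-point 1:2 series, 0.1% DMSO) for 4 days at 37 °C. Fixed cells were immunostained for αSMA and imaged, excluding SYTOX-positive dead cells. The % αSMA-positive cells was normalized to TGF-β1/DMSO control wells.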

IL-6 = IL-6 inhibition in LPS-stimulated human peripheral blood mononuclear cells (HTRF); format: cell-based; details: Homo sapiens, PBMC; for inhibition at 10 µM: read-out: percent value in parentheses below EC50 >10; for EC50: IL-6, LPS-stimulated huPBMCs, HTRF
Summary of the method: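 Fresh human PBMCs (5000 cells/well, 1% FBS RPMI) preincubated with compound (10-point 1:3 series from 10 μM, 0.25% DMSO) 2 h at 37 °C, then stimulated with 50 ng/mL E. coli LPS for 22 h. IL-6 by HTRF 665/620 ratio; DMSO-normalized, EC50 from 4-parameter fit.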

DYRK1A kinase = DYRK1A kinase (Homo sapiens (Human), UniProt Q13627); assay: DYRK1A kinase assay (Ser/Thr 18 peptide Z-lyte, FRET)
[5] = Homo sapiens; Sp5-Luc reporter, SW480 cells, 36 to 48 hours
[6] = SH-SY5Y cells, overnight (16-18 h), read-out: pSer396 Tau EC50
[7] = Homo sapiens, 96 h; cell viability, SW480 cells, four days, CellTiter-Glo
[8] = DYRK1A kinase, method text calls the value IC50
[9] = Homo sapiens, SW480, read-out: percent inhibition at 10 μM
[10] = Homo sapiens, SW480; read-out: percent inhibition at 10 μM

Row | SMILES | EC50 [1, 5] [nM] | EC50 (GSK3β kinase) [nM] | EC50 [2, 6] [µM] | EC50 [3, 7] [nM] | EC50 (IL-6) [nM] | EC50 (DYRK1A kinase; [8]) [nM] | EC50 (DYRK1A kinase) [nM] | EC50 [4] [nM] | inhibition at 10 µM [4] [%] | inhibition at 10 µM (IL-6) [%] | inhibition at 10 µM [1, 9] [%] | EC50 ([2]; SH-SY5Y, read-out: pSer396 Tau EC50 (μM)) [µM] | inhibition at 10 µM [3, 9] [%] | inhibition at 10 µM [3, 10] [%] | inhibition at 10 µM [1, 10] [%]
1 | Cc1nnc(-c2ccc3cnc(NC(=O)N4CCN(C)[C@H](C)C4)cc3c2)s1 [Compound 109, (R)-3,4-Dimethyl-N-(6-(5-methyl-1,3,4-thiadiazol-2-yl)isoquinolin-3-yl) piperazine-1-carboxamide] | 7810 | 175 | 3.1 | 4130 | > 10000 | 10 | – | > 10000 | 19.5 | 6.9 | – | – | – | – | –
2 | Cc1nnc(-c2ccc3cnc(NC(=O)N4CC5CCC(C4)N5C)cc3c2)s1 [Compound 110, 8-Methyl-N-(6-(5-methyl-1,3,4-thiadiazol-2-yl)isoquinolin-3-yl)-3,8-diazabicyclo[3.2.1]octane-3-carboxamide] | > 10000 | 314 | – | > 10000 | > 10000 | 17 | – | 1970 | – | 7 | 24.5 | 2.1 | 1.5 | – | –
3 | Cc1nnc(-c2ccc3cnc(NC(=O)N4CCC(NC(CF)CF)CC4)cc3c2)s1 [Compound 121, 4-((1,3-Difluoropropan-2-yl)amino)-N-(6-(5-methyl-1,3,4-thiadiazol-2-yl)isoquinolin-3-yl)piperidine-1-carboxamide] | 8130 | 82 | 0.953 | > 10000 | > 10000 | 35 | – | > 10000 | 10.4 | 5.4 | – | – | – | 36.5 | –
4 | Cc1ncc(-c2ccc3cnc(NC(=O)[C@H]4CC[C@H](NC(CF)CF)CC4)cc3c2)o1 [Compound 124, trans-4-((1,3-difluoropropan-2-yl)amino)-N-(6-(2-methyloxazol-5-yl)isoquinolin-3-yl)cyclohexane-1-carboxamide] | 3480 | 217 | 0.612 | 1020 | 1880 | 35 | – | 451 | – | – | – | – | – | – | –
5 | Cc1nnc(-c2ccc3cnc(NC(=O)N4CCn5ccnc5C4)cc3c2)s1 [Compound 125, N-(6-(5-Methyl-1,3,4-thiadiazol-2-yl)isoquinolin-3-yl)-5,6-dihydroimidazo [1,2-a]pyrazine-7(8H)-carboxamide] | 1240 | 5 | 0.114 | 1660 | 9270 | 4 | – | 442 | – | – | – | – | – | – | –
6 | Cc1ncc(-c2ccc3cnc(NC(=O)N4CCn5ccnc5C4)cc3c2)o1 [Compound 126, N-(6-(2-Methyloxazol-5-yl)isoquinolin-3-yl)-5,6-dihydroimidazo[1,2-a]pyrazine-7(8H)-carboxamide] | 1180 | 24 | 0.197 | 488 | 363 | 5 | – | 286 | – | – | – | – | – | – | –
7 | Cc1nnc(-c2ccc3cnc(NC(=O)N4CCC(N5CCOCC5)CC4)cc3c2)s1 [Compound 128, N-(6-(5-Methyl-1,3,4-thiadiazol-2-yl)isoquinolin-3-yl)-4-morpholinopiperidine-1-carboxamide] | 3180 | 25 | 0.491 | 4370 | > 10000 | 16 | – | 6630 | – | 8 | – | – | – | – | –
8 | Cc1nnc(-c2ccc3cnc(NC(=O)N4CCC(N5CCN(C)CC5)CC4)cc3c2)s1 [Compound 129, N-(6-(5-methyl-1,3,4-thiadiazol-2-yl)isoquinolin-3-yl)-4-(4-methylpiperazin-1-yl)piperidine-1-carboxamide] | 1810 | 90 | 0.656 | 3620 | > 10000 | 18 | – | 1990 | – | 4.5 | – | – | – | – | –
9 | Cc1nnc(-c2ccc3cnc(NC(=O)N4CC[C@@H](NC(C)C)[C@H](F)C4)cc3c2)s1 [Compound 130, (3R,4R)-3-Fluoro-4-(isopropylamino)-N-(6-(5-methyl-1,3,4-thiadiazol-2-yl)isoquinolin-3-yl)piperidine-1-carboxamide] | 4040 | 142 | 1.5 | 4210 | > 10000 | 37 | – | 3300 | – | 12.2 | – | – | – | – | –
10 | Cc1nnc(-c2ccc3cnc(NC(=O)N4CC[C@@H](N)[C@H](F)C4)cc3c2)s1 [Compound 131, (3R,4R)-4-Amino-3-fluoro-N-(6-(5-methyl-1,3,4-thiadiazol-2-yl)isoquinolin-3-yl)piperidine-1-carboxamide] | 3920 | 6 | 0.337 | > 10000 | 1930 | 13 | – | 1930 | – | – | – | – | – | 35.9 | –

The next lines start with results.

Row | EC50 [1, 5] [nM] | EC50 (GSK3β kinase) [nM] | EC50 [2, 6] [µM] | EC50 [3, 7] [nM] | EC50 (IL-6) [nM] | EC50 (DYRK1A kinase; [8]) [nM] | EC50 (DYRK1A kinase) [nM] | SMILES | EC50 [4] [nM] | inhibition at 10 µM [4] [%] | inhibition at 10 µM (IL-6) [%] | inhibition at 10 µM [1, 9] [%] | EC50 ([2]; SH-SY5Y, read-out: pSer396 Tau EC50 (μM)) [µM] | inhibition at 10 µM [3, 9] [%] | inhibition at 10 µM [3, 10] [%] | inhibition at 10 µM [1, 10] [%]
11 | 593 | 19 | 0.093 | 2740 | 7130 | – | 6 | [2H]c1c(NC(=O)C2CCN(C)CC2)ncc2ccc(-c3nnc(C)s3)cc12 [Compound 134, 1-Methyl-N-(6-(5-methyl-1,3,4-thiadiazol-2-yl)isoquinolin-3-yl-4-d) piperidine-4-carboxamide] | 579 | – | – | – | – | – | – | –
12 | 5690 | 22 | 0.365 | > 10000 | > 10000 | – | 41 | [2H]c1c(NC(=O)CN2CCOCC2)ncc2ccc(-c3nnc(C)s3)cc12 [Compound 135, N-(6-(5-Methyl-1,3,4-thiadiazol-2-yl)isoquinolin-3-yl-4-d)-2-morpholinoacetamide] | 2140 | – | 0 | – | – | – | 27.8 | –
13 | 2110 | 80 | 0.309 | 1120 | 463 | – | 6 | [2H]c1c(NC(=O)C2CCN(C)CC2)ncc2ccc(-c3cnc(C)o3)cc12 [Compound 136, 1-Methyl-N-(6-(2-methyloxazol-5-yl)isoquinolin-3-yl-4-d)piperidine-4-carboxamide] | 418 | – | – | – | – | – | – | –
14 | > 10000 | 68 | 0.573 | > 10000 | 2280 | – | 18 | [2H]c1c(NC(=O)CN2CCOCC2)ncc2ccc(-c3cnc(C)o3)cc12 [Compound 137, N-(6-(2-Methyloxazol-5-yl)isoquinolin-3-yl-4-d)-2-morpholinoacetamide] | 3130 | – | – | – | – | – | 39 | 38.5
15 | 2820 | 33 | 1.4 | 7350 | > 10000 | – | 22 | [2H]C([2H])([2H])C(N[C@H]1CCN(C(=O)Nc2cc3cc(-c4nnc(C)s4)ccc3cn2)C[C@@H]1F)C([2H])([2H])[2H] [Compound 139, (3S,4S)-3-Fluoro-N-(6-(5-methyl-1,3,4-thiadiazol-2-yl)isoquinolin-3-yl)-4-((propan-2-yl-1,1,1,3,3,3-d6)amino)piperidine-1-carboxamide] | 2350 | – | 6.6 | – | – | – | – | –
16 | 2940 | 1780 | 7.2 | 3360 | > 10000 | – | 11 | [2H]C1([2H])OC([2H])([2H])C([2H])([2H])N(C(=O)Nc2cc3cc(-c4cnc(C)n4C)ccc3cn2)C1([2H])[2H] [Compound 143, N-(6-(1,2-Dimethyl-1H-imidazol-5-yl)isoquinolin-3-yl)morpholine-d8-4-carboxamide] | > 10000 | 40.4 | 5.7 | – | – | – | – | –
17 | > 10000 | 21 | > 10 | 3770 | > 10000 | – | 20 | [2H]C([2H])([2H])N([C@H]1CC[C@H](C(=O)Nc2cc3cc(-c4cnc(C)o4)ccc3cn2)CC1)C([2H])([2H])[2H] [Compound 144, trans-4-(Bis(methyl-d3)amino)-N-(6-(2-methyloxazol-5-yl)isoquinolin-3-yl) cyclohexane-1-carboxamide] | 1380 | – | 14.3 | – | – | – | – | 35.8
